In assay [1] the test system is vancomycin-binding aptamer (45-base; EAB sensor) (DNA, aptamer) CGAGGGTACCGCAATAGTACTTATTGTTCGCCTATTGTGGGTCGG
In words: differential pulse voltammetry. The settings on record: 2 mM Mg2+, PBS; 1x PBS, 37°C; apparent; Langmuir fit.

Assay [2] has the same test system. In words: alternating current voltammetry. The settings on record: 2 mM Mg2+, PBS; 1x PBS, 37°C; apparent; Langmuir fit; 50 and 5 Hz.

Turning to `CN[C@H](CC(C)C)C(=O)N[C@H]1C(=O)N[C@@H](CC(N)=O)C(=O)N[C@H]2C(=O)N[C@H]3C(=O)N[C@H](C(=O)N[C@H](C(=O)O)c4cc(O)cc(O)c4-c4cc3ccc4O)[C@H](O)c3ccc(c(Cl)c3)Oc3cc2cc(c3O[C@@H]2O[C@H](CO)[C@@H](O)[C@H](O)[C@H]2O[C@H]2C[C@](C)(N)[C@H](O)[C@H](C)O2)Oc2ccc(cc2Cl)[C@H]1O`, the figures for the Kd in assay [1] and in assay [2] were 76 ± 6 µM and 46 ± 4 µM, respectively.

The values above are taken from PMC13099078 (2023).
